Patent publication US10683291B2, “Heterocyclic compounds for the treatment of disease” (OPPILAN PHARMA LTD., priority 2015, dated 2020)

Key:
[1] = test system: lymphocyte count; test: Lymphocyte count in mice; type: in vivo; details: 10 mg/kg p.o., blood at 4 hr, FIG. 2
Protocol: A total of 6 mice were used in this study for each compound (Examples 1-6) and divided in two groups as Group 1 (vehicle, Dose: 10 mL/kg) and Group 2 (Compound, Dose: 10 mg/kg, p.o.). Animals in Group 1 were administered with vehicle. Animals in Group 2 were administered with solution formulation of PTC1566-1 at 10 mg/kg dose through oral route. Blood samples from Group 2 were collected under light isoflurane anesthesia from a set of three mice at 1 & 4 hr (p.o.) and from Group 1 blood samples were collected at 4 hr. Plasma was harvested by centrifugation of blood and stored at −70° C. until analysis. Brain was collected at 4 hr from Group 2 animals, weighed and transferred in a poly-propylene tube. Two volumes of PBS buffer (pH 7.4) was added and homogenized to get final volume of 3 times and stored below −70° C. until bioanalysis. Blood sample at 4 hr from both groups were used for lymphocyte count. Analysis Plasma and Brain samples were quantified by fit-for-purpose LCMS/MS method (LLOQ: 4.91 ng/mL for plasma and 14.73 ng/g for brain). For each of the six compounds tested, plasma concentration was greater than 2600 ng/mL at 1 hr and greater than 2100 ng/mL at 4 hr. For each of the six compounds tested, brain concentration was less than 200 ng/g. For each of the six compounds tested (Compound 15, Compound 18, Compound 19, Compound 16, Compound 11, and Compound 13), the lymphocyte count was less than 45% of control (FIG. 2).

[2] = biological target: human S1P1 (Homo sapiens (Human), UniProt P21453); test: GTPγS binding assay (scintillation proximity assay); type: biochemical; details: S1P1 membrane from CHO-K1 Gαqi5 cells expressing full-length human S1P1; GTPγ35S SPA
human S1P1, sequence (P21453 whole entry): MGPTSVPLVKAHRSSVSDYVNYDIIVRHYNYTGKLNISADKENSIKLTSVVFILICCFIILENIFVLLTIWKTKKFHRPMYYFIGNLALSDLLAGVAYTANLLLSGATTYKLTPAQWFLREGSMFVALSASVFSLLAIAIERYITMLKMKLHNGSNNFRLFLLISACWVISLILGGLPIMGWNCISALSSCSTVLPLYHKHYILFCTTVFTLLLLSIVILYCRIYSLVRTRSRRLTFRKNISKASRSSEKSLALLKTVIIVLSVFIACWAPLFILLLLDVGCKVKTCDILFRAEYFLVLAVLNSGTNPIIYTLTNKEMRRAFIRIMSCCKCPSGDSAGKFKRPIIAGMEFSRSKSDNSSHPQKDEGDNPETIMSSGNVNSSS
Protocol: S1P1 membrane is prepared from CHO-K1 Gαqi5 cells expression full-length human S1P1. Scintillation proximity assay (SPA) is performed by incubating membranes, GTPγ^35S, and compounds at various concentrations for 60 minutes. Wheat germ agglutinin-coated SPA beads are added and incubated for 60 minutes before centrifugation and scintillation counting.

SMILES	EC50 [2] [nM]	lymphocyte count [1]
CN1C[C@@H](Oc2cc(Cl)c(-c3noc(-c4cn5cc(C(F)(F)F)cc(Cl)c5n4)n3)cc2Cl)CCC1=O [Example 4, (S)-5-(2,5-dichloro-4-(5-(8-chloro-6-(trifluoromethyl)imidazo[1,2-a]pyridin-2-yl)-1,2,4-oxadiazol-3-yl)phenoxy)-1-methylpiperidin-2-one]		less than 45 % of control
O=C1CC[C@H](COc2cc(Cl)c(-c3noc(-c4cn5cc(C(F)(F)F)cc(Cl)c5n4)n3)cc2Cl)N1 [Example 3, (R)-5-((2,5-dichloro-4-(5-(8-chloro-6-(trifluoromethyl)imidazo[1,2-a]pyridin-2-yl)-1,2,4-oxadiazol-3-yl)phenoxy)methyl)pyrrolidin-2-one]		less than 45 % of control
O=C1CC[C@@H](COc2cc(Cl)c(-c3noc(-c4cn5cc(C(F)(F)F)cc(Cl)c5n4)n3)cc2Cl)N1 [Example 1, (S)-5-((2,5-dichloro-4-(5-(8-chloro-6-(trifluoromethyl)imidazo[1,2-a]pyridin-2-yl)-1,2,4-oxadiazol-3-yl)phenoxy)methyl)pyrrolidin-2-one]	< 1000	less than 45 % of control

Continued, in another order:

EC50 [2] [nM]	SMILES	lymphocyte count [1]
< 1000	CN1C[C@H](Oc2cc(Cl)c(-c3noc(-c4cn5cc(C(F)(F)F)cc(Cl)c5n4)n3)cc2Cl)CCC1=O [Example 6, (R)-5-(2,5-dichloro-4-(5-(8-chloro-6-(trifluoromethyl)imidazo[1,2-a]pyridin-2-yl)-1,2,4-oxadiazol-3-yl)phenoxy)-1-methylpiperidin-2-one]	less than 45 % of control
< 1000	O=C1CC[C@@H](Oc2cc(Cl)c(-c3noc(-c4cn5cc(C(F)(F)F)cc(Cl)c5n4)n3)cc2Cl)CN1 [Example 5, (R)-5-(2,5-dichloro-4-(5-(8-chloro-6-(trifluoromethyl)imidazo[1,2-a]pyridin-2-yl)-1,2,4-oxadiazol-3-yl)phenoxy)piperidin-2-one]	less than 45 % of control
